In assay [1] the target is BACE1 (Homo sapiens, UniProt P56817). Briefly: In vitro enzymatic BACE FRET assay. The conditions noted are these: beta secretase enzyme 0.2 nM, FRET substrate 50 nM, pH 4.2; read-out: BACE1 FRET assay (IC50 class). The format is biochemical. On the procedure:
In Vitro Enzymatic BACE FRET (Fluorescence Resonance Energy Transfer) Assay (Enzyme Assay Data in Table 1)
The assay buffer used in this screen is 0.05 M acetate, pH 4.2, 10% DMSO final, 100 uM genapol (which is a nonionic detergent, below its Critical Micelle Concentration). The beta secretase enzyme (0.2 nM) is pre-incubated for one hour with inhibitors, typically in about 1 uL of DMSO according to a serial dilution, are added thereto. The assay is effectively started by the addition of FRET substrate (50 nM) and the combination is incubated for one hour. The FRET assay is terminated with by addition of Tris buffer, which raises the pH to neutrality, and the fluorescence is determined. The FRET substrate is a peptide with commercially available fluorophore and quencher, on opposite sides of the BACE cleavage site. Proteolytic cleavage of the FRET substrate releases quenching of fluorescence (excitation […] and […]).
Of the compounds tested, the in-vitro BACE FRET enzyme data for each of Examples 1-220, where available at the time of filing this application, is provided in Table 1.

The subject of assay [2] is Aβ40 in conditioned medium of cells stably expressing Amyloid Precursor Protein (APP). Briefly: In vitro BACE cell-based assay (HEK cell assay), Aβ40 sandwich ELISA. The conditions noted are these: Homo sapiens, HEK293, 24 h, inhibition of Aβ40, 24 h incubation, read-out: HEK cell assay (IC50 class). On the procedure:
In Vitro BACE Cell-Based Assay:
The cell-based assay measures inhibition or reduction of Aβ40 in conditioned medium of test compound treated cells expressing amyloid precursor protein.
Cells stably expressing Amyloid Precursor Protein (APP) were plated at a density of 40K cells/well in 96 well plates (Costar). The cells were cultivated for 24 hours at 37° C. and 5% CO2 in DMEM supplemented with 10% FBS. The test compounds were then added to cells in 10-point dose response concentrations with the starting concentration being either 100 μM or 10 μM. The compounds were diluted from stock solutions in DMSO and the final DMSO concentration of the test compounds on cells was 0.1%. After 24 h of incubation with the test compounds the supernatant conditioned media was collected and the Aβ 40 levels were determined using a sandwich ELISA. The IC50 of the compound was calculated from the percent of control or percent inhibition of Aβ 40 as a function of the concentration of the test compound.
The sandwich ELISA to detect Aβ 40 was performed in 96 well microtiter plates, which were pre-treated with goat anti-rabbit IgG (Pierce). The capture and detecting antibody pair that were used to detect Aβ 40 from cell supernatants were affinity purified pAb40 (Biosource) and biotinylated 6E10 (Signet Labs Inc.), respectively. The optimal concentration for the pAb40 antibody was 3 μg/ml in Superblock/TBS (Pierce) that was supplemented with 0.05% Tween 20 (Sigma). Optimal concentration for the detection antibody 6E10-biotinylated was 0.5 μg/ml in Superblock/TBS (Pierce) that had been supplemented with 2% normal goat serum and 2% normal mouse serum.
Cellular supernatants were incubated with the capture antibody for 3 h at 4° C., followed by 3 wash steps in TBS-tween (0.05%). The detecting antibody incubation was for 2 h at 4° C., again followed by the wash steps as described previously. The final readout of the ELISA is Time-Resolved Fluorescence (counts per minute) using Delfia reagents Streptavidin-Europium and Enhancement solutions (Perkin Elmer) and the Victor 2 multilabel counter (Perkin Elmer).

BACE1, sequence (P56817 46-501, species assumed): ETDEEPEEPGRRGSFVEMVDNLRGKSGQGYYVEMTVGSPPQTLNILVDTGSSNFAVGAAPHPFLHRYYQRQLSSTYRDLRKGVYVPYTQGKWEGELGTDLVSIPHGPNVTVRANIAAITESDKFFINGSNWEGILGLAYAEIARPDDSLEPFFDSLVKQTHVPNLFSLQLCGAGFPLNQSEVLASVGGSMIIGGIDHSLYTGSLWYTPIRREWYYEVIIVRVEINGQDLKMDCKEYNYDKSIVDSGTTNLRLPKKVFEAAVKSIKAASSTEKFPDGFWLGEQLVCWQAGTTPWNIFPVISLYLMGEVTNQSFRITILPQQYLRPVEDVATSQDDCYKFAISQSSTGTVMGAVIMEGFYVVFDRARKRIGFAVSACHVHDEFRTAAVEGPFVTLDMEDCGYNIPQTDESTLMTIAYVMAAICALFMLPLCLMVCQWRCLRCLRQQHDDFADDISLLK

As to `Nc1nc2ccc(-c3c(Cl)cccc3C(=O)N3CCCCC3)cc2cc1N1CCOCC1` [Example 143, (2-(2-amino-3-morpholinoquinolin-6-yl)-3-chlorophenyl)(piperidin-1-yl)methanone], the IC50 in assay [1] was below 100 nM; in assay [2], 1010 to 5000 nM.
As to `Cc1cccc(C2=NCCc3ccccc32)c1-c1ccc2nc(N)c(N3CCOCC3)cc2c1` [Example 4, 6-(2-(3,4-dihydroisoquinolin-1-yl)-6-methylphenyl)-3-morpholinoquinolin-2-amine], the figures for the IC50 in assay [1] and in assay [2] were 100 to 500 nM and 501 to 1000 nM, respectively.
Take `CC(C)(C)CC(=O)c1ccccc1-c1ccc2nc(N)c(N3CCOCC3)cc2c1` [Example 153, 1-(2-(2-amino-3-morpholinoquinolin-6-yl)phenyl)-3,3-dimethylbutan-1-one]: the IC50 is 100 to 500 nM in assay [1] and above 5000 nM in assay [2].
The corresponding values for `Nc1nc2ccc(-c3ccccc3OCc3ccccc3)cc2cc1N1CCOCC1` [Example 53, 6-(2-(benzyloxy)phenyl)-3-morpholinoquinolin-2-amine] are 100 to 500 nM and above 5000 nM.
As for `Cc1cccc(C(=O)N2CCC(F)CC2)c1-c1ccc2nc(N)c(N3CCOCC3)cc2c1` [Example 95, (2-(2-amino-3-morpholinoquinolin-6-yl)-3-methylphenyl)(4-fluoropiperidin-1-yl)methanone], the IC50 in assay [1] was below 100 nM; in assay [2], 1010 to 5000 nM.
For `Nc1nc2ccc(-c3ccccc3C(=O)N3CCCC3)cc2cc1N1CCOCC1` [Example 146, (2-(2-amino-3-morpholinoquinolin-6-yl)phenyl)(pyrrolidin-1-yl)methanone], in that order: 100 to 500 nM and 1010 to 5000 nM.
Regarding `Cc1cccc(C(=O)N2CC[C@@H](F)C2)c1-c1ccc2nc(N)c(N3CCOCC3)cc2c1` [Example 69, (R)-(2-(2-amino-3-morpholinoquinolin-6-yl)-3-methylphenyl)(3-fluoropyrrolidin-1-yl)methanone], the 50% inhibitory concentration (IC50) in assay [1] was below 100 nM; in assay [2] it was 100 to 500 nM.
The corresponding values for `Cc1cccc(C(=O)N2CCCC2)c1-c1ccc2nc(N)c(C3CCOCC3)cc2c1` [Example 28, (2-(2-amino-3-(tetrahydro-2H-pyran-4-yl)quinolin-6-yl)-3-methylphenyl)(pyrrolidin-1-yl)methanone] are below 100 nM and below 100 nM.
The corresponding values for `Cc1ccc(C(=O)c2cccc(C)c2-c2ccc3nc(N)c(N4CCOCC4)cc3c2)cc1` [Example 178, (2-(2-amino-3-morpholinoquinolin-6-yl)-3-methylphenyl)(p-tolyl)methanone] are below 100 nM and 1010 to 5000 nM.
Take `CCCN(CC)C(=O)c1cccc(C)c1-c1ccc2nc(N)c(N3CCOCC3)cc2c1` [Example 105, 2-(2-amino-3-morpholinoquinolin-6-yl)-N-ethyl-3-methyl-N-propylbenzamide]: the IC50 in assay [1] was 501 to 1000 nM; in assay [2], 1010 to 5000 nM.
For `Cc1cc(F)cc(C(=O)N2CCCC2)c1-c1ccc2nc(N)c(N3CCOCC3)cc2c1` [Example 27, (2-(2-amino-3-morpholinoquinolin-6-yl)-5-fluoro-3-methylphenyl)(pyrrolidin-1-yl)methanone], in that order: below 100 nM and 100 to 500 nM.
The corresponding values for `Cc1cccc(OC2CCOC2)c1-c1ccc2nc(N)c(N3CCOCC3)cc2c1` (stereo not shown) [Example 54, 6-(2-methyl-6-(tetrahydrofuran-3-yloxy)phenyl)-3-morpholinoquinolin-2-amine] are 501 to 1000 nM and 1010 to 5000 nM.
For the compound `Cc1cccc(C(=O)N2CCCC2)c1-c1ccc2nc(N)c(C3CCCCO3)cc2c1` (stereo not shown) [Example 29, (2-(2-amino-3-(tetrahydro-2H-pyran-2-yl)quinolin-6-yl)-3-methylphenyl)(pyrrolidin-1-yl)methanone], the results for the IC50 in assay [1] and in assay [2] were 100 to 500 nM and 1010 to 5000 nM, respectively.
The corresponding values for `Cc1ccccc1C(=O)c1cccc(C)c1-c1ccc2nc(N)c(N3CCOCC3)cc2c1` [Example 3, (2-(2-amino-3-morpholinoquinolin-6-yl)-3-methylphenyl)(o-tolyl)methanone] are below 100 nM and 501 to 1000 nM.
The corresponding values for `Cc1cccc(C(=O)Cc2ccccc2)c1-c1ccc2nc(N)c(N3CCOCC3)cc2c1` [Example 185, 1-(2-(2-amino-3-morpholinoquinolin-6-yl)-3-methylphenyl)-2-phenylethanone] are below 100 nM and 1010 to 5000 nM.
With `CCCC1CCCCN1C(=O)c1cccc(C)c1-c1ccc2nc(N)c(N3CCOCC3)cc2c1` (stereo not shown) [Example 79, (2-(2-amino-3-morpholinoquinolin-6-yl)-3-methylphenyl)(2-propylpiperidin-1-yl)methanone], the values for the IC50 in assay [1] and in assay [2] were 100 to 500 nM and 1010 to 5000 nM, respectively.
The corresponding values for `Cc1cccc(-c2cccc(C(F)(F)F)c2)c1-c1ccc2nc(N)c(N3CCOCC3)cc2c1` [Example 25, 6-(3-methyl-3′-(trifluoromethyl)biphenyl-2-yl)-3-morpholinoquinolin-2-amine] are below 100 nM and above 5000 nM.
On to `Cc1cccc(C(=O)N2CCCC2)c1-c1ccc2nc(N)c(N3CCCCC3)cc2c1` [Example 61, (2-(2-amino-3-(piperidin-1-yl)quinolin-6-yl)-3-methylphenyl)(pyrrolidin-1-yl)methanone], for which the figures for the IC50 in assay [1] and in assay [2] were 501 to 1000 nM and 1010 to 5000 nM, respectively.
In the case of `Cc1cccc(C(=O)C2CC2)c1-c1ccc2nc(N)c(N3CCOCC3)cc2c1` [Example 186, (2-(2-amino-3-morpholinoquinolin-6-yl)-3-methylphenyl)(cyclopropyl)methanone], the values for the IC50 in assay [1] and in assay [2] were 100 to 500 nM and 1010 to 5000 nM, respectively.
For `Cc1cccc(C(=O)N(C)C2CCC(C)CC2)c1-c1ccc2nc(N)c(N3CCOCC3)cc2c1` (stereo not shown) [Example 122, 2-(2-amino-3-morpholinoquinolin-6-yl)-N,3-dimethyl-N-(4-methylcyclohexyl)benzamide], in that order: below 100 nM and 501 to 1000 nM.
With `Cc1cccc(C(=O)N2CCCC2C(C)C)c1-c1ccc2nc(N)c(N3CCOCC3)cc2c1` (stereo not shown) [Example 66, (2-(2-amino-3-morpholinoquinolin-6-yl)-3-methylphenyl)(2-isopropylpyrrolidin-1-yl)methanone], the IC50 in assay [1] is below 100 nM; in assay [2] it was 100 to 500 nM.
As to `CCCC(=O)c1cccc(C)c1-c1ccc2nc(N)c(N3CCOCC3)cc2c1` [Example 179, 1-(2-(2-amino-3-morpholinoquinolin-6-yl)-3-methylphenyl)butan-1-one], the IC50 in assay [1] was in the range of 100 to 500 nM; in assay [2], 1010 to 5000 nM.
Regarding `COc1ccccc1C(=N)c1cccc(C)c1-c1ccc2nc(N)c(N3CCOCC3)cc2c1` [Example 6, 6-(2-(imino(2-methoxyphenyl)methyl)-6-methylphenyl)-3-morpholinoquinolin-2-amine], the IC50 in assay [1] and in assay [2] was below 100 nM in each case.
Consider `CC=CC(=O)c1cccc(C)c1-c1ccc2nc(N)c(N3CCOCC3)cc2c1` [Example 183, 1-(2-(2-amino-3-morpholinoquinolin-6-yl)-3-methylphenyl)but-2-en-1-one], for which the half-maximal inhibitory concentration (IC50) in assay [1] was 100 to 500 nM; in assay [2] it was 1010 to 5000 nM.
For `Cc1cccc(C(=O)N2CCC[C@H]2C(F)(F)F)c1-c1ccc2nc(N)c(N3CCOCC3)cc2c1` [Example 94, (S)-(2-(2-amino-3-morpholinoquinolin-6-yl)-3-methylphenyl)(2-(trifluoromethyl)pyrrolidin-1-yl)methanone], in that order: 100 to 500 nM and 1010 to 5000 nM.
For the compound `CCOC1CCCN(C(=O)c2cccc(C)c2-c2ccc3nc(N)c(N4CCOCC4)cc3c2)C1` (stereo not shown) [Example 85, (2-(2-amino-3-morpholinoquinolin-6-yl)-3-methylphenyl)(3-ethoxypiperidin-1-yl)methanone], the IC50 is 100 to 500 nM in assay [1] and 1010 to 5000 nM in assay [2].

Source of the values: US8735384B2, “Amino heteroaryl compounds as beta-secretase modulators and methods of use” (Amgen Inc., priority 2010, dated 2014).
